Results published in patent US9487566B2, “Method for purifying protein” (KYOWA HAKKO KIRIN CO., LTD, priority 2011, dated 2016).

Tests used:
neuraminidase [1] = experiment: Capillary electrophoresis of Erythropoietin from culture fluid held with amino acids (bound sialic acids); format: biochemical; settings: 1 mol/L amino acid solution mixed in equivalent amount, 25° C. for 7 days, compared with purified water / initiation
Procedure: Purified water, 1 mol/L alanine solution, 1 mol/L arginine solution, or 1 mol/L glycine solution was mixed with the culture fluid containing Erythropoietin in an equivalent amount, respectively and then held at 25° C. for 7 days. Thereafter, Erythropoietin was purified using an anti-Erythropoietin antibody-immobilized affinity chromatography column, and the number of sialic acids binding to Erythropoietin was measured by capillary electrophoresis [Biol. Pharm. Bull. 33(9) 1596-1599 (2010)].

neuraminidase [2] = experiment: Neuraminidase activity after addition of amino acids to Antithrombin eluate (enzyme assay); format: biochemical, CHO cell
Procedure: The Antithrombin concentration and the neuraminidase activity in the washing fraction before elution and in a particular range of eluate were measured by reversed-phase HPLC method [J. Chromatography B, 662, 209 (1994)] and enzyme assay [Glycobiology, 3, 455 (1993)], respectively.
Arginine hydrochloride or glycine of a final concentration of 0 to 500 mmol/L was added to the aqueous solution containing Antithrombin obtained in the elution process of Comparative Example 1. The neuraminidase activity in each solution was measured in the same manner as in Example 1.

protease = settings: glycine 0.5 mol/L or arginine 0.4 mol/L final, 25° C. for 6 days
[3] = system: Neuraminidase (manufactured by Nacalai Tesque); settings: final concentration 1.0 mol/L, neuraminidase 0.0005 U/mL, 37° C. for 3 hours
Procedure: As a control group, purified water was added in the same amount as the neuraminidase. Glycine was added at a final concentration of 1.0 mol/L, or purified water as a control, and held at 37° C. for 3 hours.

[4] = Storage stability of purified Protein S by SDS-PAGE; format: physicochemical; settings: held at 37° C. for 3 days vs frozen at −20° C.
Procedure: The Protein S-Example 16 and the Protein S-Comparative Example 3 were held at 37° C. for 3 days, or they were also frozen at −20° C., respectively.

Row | Molecule | number of sialic acids binding to Erythropoietin after holding (neuraminidase [1]) | relative neuraminidase activity (activity at 0 mmol/L amino acid regarded as 1.0) (neuraminidase [2]; addition of 100 mmol/L) | conversion of Protein S into the cleaved form (protease) | change on storage (cleaved form, SDS-PAGE) [4] | also measured
1 | C[C@H](N)C(=O)O [alanine] | the number of bound sialic acids was maintained |  |  |  | 
2 | N=C(N)NCCC[C@H](N)C(=O)O [arginine] | the number of bound sialic acids was equivalent | about 0.2 | conversion of Protein S into the cleaved form was inhibited |  | relative neuraminidase activity (activity at 0 mmol/L amino acid regarded as 1.0) (neuraminidase [2]; addition of 200 mmol/L or more, below the detection limit): 0
3 | NCC(=O)O [glycine] | the number of bound sialic acids was maintained | about 0.2 | conversion of Protein S into the cleaved form was inhibited |  | relative neuraminidase activity (activity at 0 mmol/L amino acid regarded as 1.0) (neuraminidase [2]; addition of 300 mmol/L or more, below the detection limit): 0; electrophoretic profile of Protein S (basic shift by loss of sialic acid) [3]: major bands were found in a more acidic region than the band of purified water-added one
4 | Protein S-Comparative Example 3: Protein S obtained by the method described in Comparative Example 3 (purified without using the mixed mode carrier) |  |  |  | the cleaved form was increased | 
5 | Protein S-Example 16: Protein S obtained by the method described in Example 16 (purified using the mixed mode carrier) |  |  |  | no change | 
